Results as given in ChEMBL document CHEMBL1201862, “PubChem BioAssay data set” (2004).
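Cells were grown in 96-well plates and exposed to each compound for 48 hours at five concentrations; endpoints were interpolated linearly between bracketing concentrations, or set to the highest concentration if not reached. GI50 marks 50% less growth.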 Active and inactive are the calls of the source. Cut-off read from the data, not from the text of the source: active = GI50 up to about 1.1 µM and inactive = higher.

Tests used:
Experiment in all cases: NCI tumour cell line growth inhibition, 48 h
OVCAR-5 = tested on: OVCAR-5
UO-31 = tested on: UO-31
A498 = tested on: A498
U-251 = tested on: U-251
IGROV-1 = tested on: IGROV-1
SK-OV-3 = tested on: SK-OV-3
KM12 = tested on: KM12
NCI-H522 = tested on: NCI-H522
HCT-15 = tested on: HCT-15
NCI-H226 = tested on: NCI-H226
OVCAR-3 = tested on: OVCAR-3
LOX IMVI = tested on: LOX IMVI
SNB-75 = tested on: SNB-75
M19-MEL = tested on: M19-MEL
COLO 205 = tested on: COLO 205
DLD-1 = tested on: DLD-1
HT-29 = tested on: HT-29
KM-20L2 = tested on: KM-20L2
SF-539 = tested on: SF-539
DMS-273 = tested on: DMS-273
SF-295 = tested on: SF-295
OVCAR-4 = tested on: OVCAR-4
A549 = tested on: A549
CCRF-CEM = tested on: CCRF-CEM
HOP-62 = tested on: HOP-62
K562 = tested on: K562
HOP-92 = tested on: HOP-92
SW-620 = tested on: SW-620
RXF 393 = tested on: RXF 393
MCF7 = tested on: MCF7
SK-MEL-28 = tested on: SK-MEL-28
OVCAR-8 = tested on: OVCAR-8
SN12C = tested on: SN12C
CAKI-1 = tested on: CAKI-1
HL-60 = tested on: HL-60
NCI-H460 = tested on: NCI-H460
HCT-116 = tested on: HCT-116
SNB-78 = tested on: SNB-78
UACC-257 = tested on: UACC-257
RPMI-8226 = tested on: RPMI-8226
EKVX = tested on: EKVX
NCI/ADR-RES = tested on: NCI/ADR-RES
NCI-H23 = tested on: NCI-H23
HCC 2998 = tested on: HCC 2998
XF498 = tested on: XF498
SK-MEL-5 = tested on: SK-MEL-5
MOLT-4 = tested on: MOLT-4
UACC-62 = tested on: UACC-62
SK-MEL-2 = tested on: SK-MEL-2
DMS-114 = tested on: DMS-114
SF-268 = tested on: SF-268
SNB-19 = tested on: SNB-19
SR = tested on: SR
Malme-3M = tested on: Malme-3M
HOP-18 = tested on: HOP-18
M14 = tested on: M14
LXFL 529 = tested on: LXFL 529
ACHN = tested on: ACHN
786-0 = tested on: 786-0
TK-10 = tested on: TK-10

## CNC(=O)C(C)C1CCC2(C)C=CC(=O)C(C)=C2C1O (stereo unspecified)
OVCAR-5
  GI50: > 100 µM (inactive)
UO-31
  GI50: > 43.3 µM (inactive)
A498
  GI50: > 100 µM (inactive)
U-251
  GI50: > 44.8 µM (inactive)
IGROV-1
  GI50: > 55.2 µM (inactive)
SK-OV-3
  GI50: > 100 µM (inactive)
KM12
  GI50: > 100 µM (inactive)
NCI-H522
  GI50: > 100 µM (inactive)
HCT-15
  GI50: > 100 µM
NCI-H226
  GI50: > 100 µM (inactive)
OVCAR-3
  GI50: > 100 µM (inactive)
LOX IMVI
  GI50: > 100 µM (inactive)
SNB-75
  GI50: > 100 µM (inactive)
M19-MEL
  GI50: > 100 µM (inactive)
COLO 205
  GI50: > 47.2 µM (inactive)
DLD-1
  GI50: > 100 µM (inactive)
HT-29
  GI50: > 100 µM (inactive)
KM-20L2
  GI50: > 100 µM (inactive)
SF-539
  GI50: > 100 µM (inactive)
DMS-273
  GI50: > 37.9 µM (inactive)
SF-295
  GI50: > 44.8 µM (inactive)
OVCAR-4
  GI50: > 100 µM (inactive)
A549
  GI50: > 48.8 µM (inactive)
CCRF-CEM
  GI50: > 100 µM (inactive)
HOP-62
  GI50: > 100 µM (inactive)
K562
  GI50: > 100 µM (inactive)
HOP-92
  GI50: > 100 µM (inactive)
SW-620
  GI50: > 57.4 µM (inactive)
RXF 393
  GI50: > 100 µM (inactive)
MCF7
  GI50: > 100 µM (inactive)
SK-MEL-28
  GI50: > 100 µM (inactive)
OVCAR-8
  GI50: > 49.4 µM (inactive)
SN12C
  GI50: > 100 µM (inactive)
CAKI-1
  GI50: 28.5 µM (inactive)
HL-60
  GI50: > 100 µM (inactive)
NCI-H460
  GI50: > 100 µM (inactive)
HCT-116
  GI50: > 100 µM (inactive)
SNB-78
  GI50: > 100 µM (inactive)
UACC-257
  GI50: > 100 µM (inactive)
RPMI-8226
  GI50: > 100 µM (inactive)
EKVX
  GI50: > 100 µM (inactive)
NCI/ADR-RES
  GI50: > 47 µM (inactive)
NCI-H23
  GI50: > 100 µM (inactive)
HCC 2998
  GI50: 67.3 µM (inactive)
XF498
  GI50: > 100 µM (inactive)
SK-MEL-5
  GI50: > 39.6 µM (inactive)
MOLT-4
  GI50: > 100 µM (inactive)
UACC-62
  GI50: > 100 µM (inactive)
SK-MEL-2
  GI50: > 100 µM (inactive)
DMS-114
  GI50: > 100 µM (inactive)
SF-268
  GI50: > 100 µM (inactive)
SNB-19
  GI50: > 100 µM (inactive)

## O=C(c1ccccc1)C1N=NN(Cc2ccccc2[N+](=O)[O-])C1C(=O)c1ccccc1 (stereo unspecified)
SR
  GI50: > 100 µM (inactive)
OVCAR-5
  GI50: > 100 µM (inactive)
UO-31
  GI50: > 100 µM (inactive)
U-251
  GI50: > 100 µM (inactive)
IGROV-1
  GI50: > 100 µM (inactive)
Malme-3M
  GI50: > 100 µM (inactive)
HOP-18
  GI50: > 100 µM (inactive)
SK-OV-3
  GI50: 87.3 µM (inactive)
KM12
  GI50: > 100 µM (inactive)
NCI-H522
  GI50: > 100 µM (inactive)
HCT-15
  GI50: > 100 µM
NCI-H226
  GI50: > 100 µM (inactive)
OVCAR-3
  GI50: > 100 µM (inactive)
LOX IMVI
  GI50: > 100 µM (inactive)
SNB-75
  GI50: 41.5 µM (inactive)
M19-MEL
  GI50: > 100 µM (inactive)
M14
  GI50: > 100 µM (inactive)
COLO 205
  GI50: 34.5 µM (inactive)
DLD-1
  GI50: > 100 µM (inactive)
HT-29
  GI50: > 100 µM (inactive)
KM-20L2
  GI50: > 100 µM (inactive)
LXFL 529
  GI50: > 100 µM (inactive)
DMS-273
  GI50: > 100 µM (inactive)
SF-295
  GI50: > 100 µM (inactive)
OVCAR-4
  GI50: > 100 µM (inactive)
A549
  GI50: 37.8 µM (inactive)
CCRF-CEM
  GI50: > 100 µM (inactive)
ACHN
  GI50: > 100 µM (inactive)
HOP-62
  GI50: > 100 µM (inactive)
K562
  GI50: > 100 µM (inactive)
HOP-92
  GI50: > 100 µM (inactive)
786-0
  GI50: > 100 µM (inactive)
SW-620
  GI50: > 100 µM (inactive)
RXF 393
  GI50: > 100 µM (inactive)
SK-MEL-28
  GI50: > 100 µM (inactive)
OVCAR-8
  GI50: > 100 µM (inactive)
CAKI-1
  GI50: > 100 µM (inactive)
HL-60
  GI50: > 100 µM (inactive)
NCI-H460
  GI50: > 100 µM (inactive)
HCT-116
  GI50: > 100 µM (inactive)
SNB-78
  GI50: > 100 µM (inactive)
UACC-257
  GI50: > 100 µM (inactive)
RPMI-8226
  GI50: > 100 µM (inactive)
EKVX
  GI50: > 100 µM (inactive)
NCI-H23
  GI50: > 100 µM (inactive)
HCC 2998
  GI50: 96.8 µM (inactive)
SK-MEL-5
  GI50: > 100 µM (inactive)
MOLT-4
  GI50: > 100 µM (inactive)
TK-10
  GI50: > 100 µM (inactive)
UACC-62
  GI50: > 100 µM (inactive)
SK-MEL-2
  GI50: > 100 µM (inactive)
DMS-114
  GI50: > 100 µM (inactive)
SF-268
  GI50: > 100 µM (inactive)
SNB-19
  GI50: > 100 µM (inactive)
